Measured values published in patent US20190381180A1, “HYBRID CARRIERS FOR NUCLEIC ACID CARGO” (CureVac AG, priority 2016, published 2019).

Legend:
[1] = system: HepG2 cells (human liver carcinoma cell line); assay: Transfection efficiency on HepG2 cells in vitro (GpLuc luminescence in supernatant); type: cell-based; settings: GpLuc mRNA, 24 h (FIG. 2A)
Protocol: This example describes the evaluation of the effect of different polymer-lipid formulations on transfection efficiency on HepG2 cells (human liver carcinoma cell line). As a read-out for transfection efficiency, GpLuc mRNA (SEQ ID NO:14) was used as a cargo.
Successful transfection with the cargo leads to the translation of the luciferase protein and to a secretion of Gp luciferase protein into the cell culture supernatant.
A volume of 0.2 mL HepG2 cells (10.000 cells) were seeded in a 96 well tissue culture plate. After removing the medium from each well, 100 μL RPMI 1640 medium (with 1% Penicillin and 1% Streptomycin, 1% L-Glutamin) was added to each well. Afterwards, HepG2 cells were transfected with 100 μL transfection mix (in triplicates) of polymer-lipid mRNA complexes (prepared according to Example 3) and respective controls (in triplicates), and cells were incubated at 37° C. and 5% CO2 for 90 minutes. […] Twenty-four hours post transfection, 10 μL of supernatant of each well was extracted and used for further luminescence analysis (see below).
A volume of 10 μL supernatant was transferred to a 96 well plate for GpLuc measurement. […] A volume of 100 μL coelenterazine working solution was used as a substrate for GpLuc and measured after 5 seconds in a commercially available microplate reader.

Sol8 cells = assay: Transfection of Sol8 muscle cells in vitro; type: cell-based, Mus musculus; settings: very small amount of lipid, in combination with low- and high-charge ratio complexes
Protocol: A volume of 10 μL supernatant was transferred to a 96 well plate for GpLuc measurement. Then, coelenterazine working solution (100 μM) was prepared (1 mL coelenterazine stock solution (4.72 mM in EtOH) in 49 mL phosphate buffered saline supplemented with 5 mM NaCl, pH 7.2). A volume of 100 μL coelenterazine working solution was used as a substrate for GpLuc and measured after 5 seconds in a commercially available microplate reader.
As a read-out for transfection efficiency, […] mRNA (SEQ ID:NO 15) was used as a cargo. A successful transfection with the cargo leads to the translation of the luciferase protein and to a secretion of Gp luciferase protein into the cell culture supernatant.
For a subset on hydrogel, a volume of 0.2 mL Sol8 cells (20.000 cells) were seeded in 96 well glass bottom plates (Softwell Hydrogel coated with collagen (elasticity E=12 kPa)). For another subset without hydrogel, a volume of 0.2 mL with 10.000 Sol8 cells per well were seeded in a 96 well glass bottom plates.
After removing the medium from each well, 100 μL DMEM medium (with 2% horse serum) was added to each well. […] Twenty-four hours post transfection, 10 μL of supernatant of each well was extracted and used for further luminescence analysis, which was performed as described in Example 5.

With `CCCCC/C=C\C/C=C\CCCCCCCCC1(CCCCCCCC/C=C\C/C=C\CCCCC)OCC(CCN(C)C)O1` (stereo not drawn) [KC2, 2,2-dilinoleyl-4-(2-dimethylaminoethyl)[1,3]-dioxolane] the “transfection efficiency compared to PB83 polymer alone” value ([1]; combination with polymer PB83, high-charge complexes (N/P 4), 1 and 2 nmol/μg RNA lipid) was “this effect was observable”.
`CCCCC/C=C\C/C=C\CCCCCCCCC(CCCCCCCC/C=C\C/C=C\CCCCC)OC(=O)CCCN(C)C` [MC3, (6Z,9Z,28Z,31Z)-heptatriaconta-6,9,28,31-tetraen-19-yl-4-(dimethylamino)butanoate] was tested, and the “transfection efficiency compared to PB83 polymer alone” value ([1]; combination with polymer PB83, low charge complexes (N/P 0.7), 0.4 and 1 nmol/μg RNA lipid) was “increase in transfection efficiency”.
`CCCCCCCC/C=C\CCCCCCCC(=O)OCC(C[N+](C)(C)C)OC(=O)CCCCCCC/C=C\CCCCCCCC.[Cl-]` (stereo not drawn) [N-[1-(2,3-dioleoyloxy)propyl]-N,N,N-trimethylammonium chloride] was tested, and the “increase of expression levels in Sol8 cells” value (Sol8 cells) was “effective”.
